Assay results as given in the NIST ThermoML archive (doi:10.1021/je060139a).

Tests used:
[1] = xn = mol fraction of the nth substance listed; conditions: Wilhelmy plate method
[2] = refractive index (Na D-line) (dimensionless); xn = mol fraction of the nth substance listed; conditions: 100.5 kPa, Liquid, Standard Abbe refractometry

CCOC(=O)c1ccccc1O [ethyl 2-hydroxybenzoate] + CCO
Conditions | refractive index, 288.15 K | refractive index, 298.18 K | refractive index, 308.15 K | refractive index, 318.15 K | surface tension liquid-gas, 288.15 K [mN/m] | surface tension liquid-gas, 298.18 K [mN/m] | surface tension liquid-gas, 308.15 K [mN/m] | surface tension liquid-gas, 318.15 K [mN/m]
[1], x1 = 0.05 | – | – | – | – | 24 | 23.17 | 22.27 | 21.3
[1], x1 = 0.1 | – | – | – | – | 24.8 | 23.9 | 22.94 | 21.97
[1], x1 = 0.15 | – | – | – | – | 25.5 | 24.55 | 23.55 | 22.57
[1], x1 = 0.2 | – | – | – | – | 26.1 | 25.14 | 24.13 | 23.17
[1], x1 = 0.25 | – | – | – | – | 26.65 | 25.65 | 24.67 | 23.7
[1], x1 = 0.3 | – | – | – | – | 27.2 | 26.15 | 25.17 | 24.2
[1], x1 = 0.35 | – | – | – | – | 27.7 | 26.65 | 25.62 | 24.67
[1], x1 = 0.4 | – | – | – | – | 28.1 | 27.1 | 26.08 | 25.17
[1], x1 = 0.45 | – | – | – | – | 28.6 | 27.55 | 26.58 | 25.7
[1], x1 = 0.5 | – | – | – | – | 29.13 | 28.1 | 27.12 | 26.25
[1], x1 = 0.55 | – | – | – | – | 29.71 | 28.66 | 27.68 | 26.8
[1], x1 = 0.6 | – | – | – | – | 30.33 | 29.25 | 28.26 | 27.38
[1], x1 = 0.65 | – | – | – | – | 31 | 29.9 | 28.9 | 28
[1], x1 = 0.7 | – | – | – | – | 31.7 | 30.6 | 29.56 | 28.67
[1], x1 = 0.75 | – | – | – | – | 32.5 | 31.38 | 30.3 | 29.4
[1], x1 = 0.8 | – | – | – | – | 33.4 | 32.25 | 31.13 | 30.2
[1], x1 = 0.85 | – | – | – | – | 34.4 | 33.18 | 32.03 | 31.1
[1], x1 = 0.9 | – | – | – | – | 35.4 | 34.18 | 33.03 | 32.18
[1], x1 = 0.95 | – | – | – | – | 36.4 | 35.17 | 34.07 | 33.2
[1], x1 = 1 | – | – | – | – | 37.5 | 36.3 | 35.2 | 34.4
[2], x1 = 0.05 | 1.38326 | 1.37908 | 1.37478 | 1.37068 | – | – | – | –
[2], x1 = 0.1 | 1.40028 | 1.39599 | 1.39159 | 1.38739 | – | – | – | –
[2], x1 = 0.15 | 1.41504 | 1.41072 | 1.40628 | 1.40202 | – | – | – | –
[2], x1 = 0.2 | 1.42788 | 1.42347 | 1.41902 | 1.4147 | – | – | – | –
[2], x1 = 0.25 | 1.43914 | 1.43468 | 1.4302 | 1.4258 | – | – | – | –
[2], x1 = 0.3 | 1.44918 | 1.44465 | 1.44012 | 1.43567 | – | – | – | –
[2], x1 = 0.35 | 1.4582 | 1.45364 | 1.44908 | 1.44456 | – | – | – | –
[2], x1 = 0.4 | 1.46635 | 1.46177 | 1.45719 | 1.45266 | – | – | – | –
[2], x1 = 0.45 | 1.47375 | 1.46918 | 1.46462 | 1.46008 | – | – | – | –
[2], x1 = 0.5 | 1.48051 | 1.47593 | 1.47139 | 1.46685 | – | – | – | –
[2], x1 = 0.55 | 1.4867 | 1.48212 | 1.4776 | 1.47306 | – | – | – | –
[2], x1 = 0.6 | 1.49239 | 1.48782 | 1.48328 | 1.47873 | – | – | – | –
[2], x1 = 0.65 | 1.49763 | 1.49304 | 1.48852 | 1.48397 | – | – | – | –
[2], x1 = 0.7 | 1.50246 | 1.49784 | 1.49331 | 1.48874 | – | – | – | –
[2], x1 = 0.75 | 1.50695 | 1.50232 | 1.49779 | 1.49321 | – | – | – | –
[2], x1 = 0.8 | 1.51112 | 1.50649 | 1.50196 | 1.49738 | – | – | – | –
[2], x1 = 0.85 | 1.51498 | 1.51035 | 1.50582 | 1.50123 | – | – | – | –
[2], x1 = 0.9 | 1.51852 | 1.51391 | 1.50938 | 1.50479 | – | – | – | –
[2], x1 = 0.95 | 1.52184 | 1.51723 | 1.51272 | 1.50814 | – | – | – | –
[2], x1 = 1 | 1.52481 | 1.52022 | 1.51573 | 1.51116 | – | – | – | –
